Experimental findings from publication PMC9703632, “The noncatalytic regions of the tyrosine kinase Tnk1 are important for activity and substrate specificity” (The Journal of Biological Chemistry, 2022) are described below.

The target of data set [1] is T1, Tnk1 (thirty-eight negative kinase 1) (Homo sapiens, UniProt Q13470).
T1 construct: Tnk1^ΔCT, residues 1-510 (SAM, kinase and SH3 domains), N-terminal 6x-His and GST tags, Sf9
T1 sequence (Q13470 1-510 isoform Q13470-2): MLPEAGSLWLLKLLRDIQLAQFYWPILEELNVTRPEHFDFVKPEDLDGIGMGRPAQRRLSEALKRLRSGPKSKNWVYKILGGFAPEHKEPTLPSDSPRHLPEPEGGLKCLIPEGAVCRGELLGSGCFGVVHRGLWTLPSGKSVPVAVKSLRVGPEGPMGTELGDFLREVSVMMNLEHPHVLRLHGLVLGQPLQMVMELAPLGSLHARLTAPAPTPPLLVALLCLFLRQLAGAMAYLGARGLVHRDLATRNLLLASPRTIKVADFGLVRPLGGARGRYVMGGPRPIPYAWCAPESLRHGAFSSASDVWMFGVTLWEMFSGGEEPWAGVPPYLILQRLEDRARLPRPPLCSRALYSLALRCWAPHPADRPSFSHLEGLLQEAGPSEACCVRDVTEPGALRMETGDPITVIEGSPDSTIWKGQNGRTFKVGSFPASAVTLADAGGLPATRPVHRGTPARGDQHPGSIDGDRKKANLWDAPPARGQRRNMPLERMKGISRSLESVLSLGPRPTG
Description: […]-ATP phosphocellulose kinase assay, WASP peptide, dose-response. In kind it is biochemical.

Data set [2] has as its target T1, Tnk1 (thirty-eight negative kinase 1). Description: single-concentration ([…]) inhibition, […]-ATP phosphocellulose kinase assay, WASP peptide. Format: biochemical. The note with it: read-out: % inhibition at 10 μM.
Substrate in the data set “purified protein”: Nc1ncnc2c1ncn2[C@@H]1O[C@H](COP(=O)(O)OP(=O)(O)OP(=O)(O)O)[C@@H](O)[C@H]1O
Description: purified protein. In kind it is biochemical, Homo sapiens. Particulars: MgCl2.

As to `CN1CCN(c2ccc(Nc3ncc(Cl)c(NC[C@H]4CCCO4)n3)cc2)CC1` [(R)-9b], the IC50 (in general, the concentration that inhibits the measured activity by half) in data set [1] was 470 nM.
For `C#Cc1cccc(Nc2ncnc3cc(OCCOC)c(OCCOC)cc23)c1` [erlotinib], the inhibition (in general, the share of the control response that was lost under treatment) at 10 µM in data set [2] lay within 30 to 40%.
Regarding `COc1cc2ncnc(Nc3ccc(F)c(Cl)c3)c2cc1OCCCN1CCOCC1` [gefitinib], the inhibition at 10 µM in data set [2] is 30 to 40%.

B1: Tnk1 (thirty-eight negative kinase 1) (Homo sapiens) (protein)
chain: MLPEAGSLWLLKLLRDIQLAQFYWPILEELNVTRPEHFDFVKPEDLDGIGMGRPAQRRLSEALKRLRSGPKSKNWVYKILGGFAPEHKEPTLPSDSPRHLPEPEGGLKCLIPEGAVCRGELLGSGCFGVVHRGLWTLPSGKSVPVAVKSLRVGPEGPMGTELGDFLREVSVMMNLEHPHVLRLHGLVLGQPLQMVMELAPLGSLHARLTAPAPTPPLLVALLCLFLRQLAGAMAYLGARGLVHRDLATRNLLLASPRTIKVADFGLVRPLGGARGRYVMGGPRPIPYAWCAPESLRHGAFSSASDVWMFGVTLWEMFSGGEEPWAGVPPYLILQRLEDRARLPRPPLCSRALYSLALRCWAPHPADRPSFSHLEGLLQEAGPSEACCVRDVTEPGALRMETGDPITVIEGSPDSTIWKGQNGRTFKVGSFPASAVTLADAGGLPATRPVHRGTPARGDQHPGSIDGDRKKANLWDAPPARGQRRNMPLERMKGISRSLESVLSLGPRPTG
notes: Tnk1^ΔCT, residues 1-510 (SAM, kinase and SH3 domains), N-terminal 6x-His and GST tags, Sf9
B1: the Michaelis-Menten constant (Km) (commonly the concentration of substrate that gives half-maximal velocity) in the data set “purified protein” was determined as 70 µM.
